According to PubChem BioAssay AID977605 (Broad Institute, 2014):
Calls of active or inactive are those of the source.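 Rule for the calls: active = fitted curve reaches 40% activation below the top valid tested dose, in every test run; inconclusive = test runs disagree on the call; inactive = the rest, including effects opposite to the expected direction.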

Assay: E-selectin inducers in HUVECs, dose response, imaging, HUVEC, cherry-picked samples (AID 977605);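 note: signal is the share of imaged cells scored positive for E-selectin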
Settings: HUVEC E-selectin immunostaining, at 19.5 µM (top of the series), percent of TNF-alpha response over vehicle

SMILES	activation
COc1ccc(S(=O)(=O)NCC(=O)NCc2cc(=O)n(C)c(=O)n2C)cc1F	0.047% (inactive)
C[C@H](CO)N1C[C@H](C)[C@H](CN(C)Cc2ccncc2)Oc2ccc(NC(=O)CCC(F)(F)F)cc2CC1=O	-0.107% (inactive)
C[C@@H]1CN([C@@H](C)CO)C(=O)c2cccc(NC(=O)C3CCOCC3)c2O[C@@H]1CN(C)Cc1ccncc1	0.913% (inactive)
C[C@@H]1CN([C@@H](C)CO)C(=O)c2cccc(NC(=O)Nc3ccc(F)cc3)c2O[C@H]1CN(C)CC1CCCCC1	-0.153% (inactive)
O=C(NC(=S)N1CCN(c2ccc([N+](=O)[O-])cc2)CC1)c1ccccc1	-0.117% (inactive)
CCOc1ccc(S(=O)(=O)N2CCC(C(=O)NCc3cccnc3)CC2)cc1	-0.239% (inactive)
Cc1ccc(-n2ncc3c(=O)[nH]c(SC(C)C)nc32)cc1	0.023% (inactive)
CCN(Cc1ccccc1)S(=O)(=O)c1ccc(OC)c2ncccc12	-0.178% (inactive)
CN1C(=O)c2cc(NS(C)(=O)=O)ccc2OC[C@@H]2O[C@H](CC(=O)NCc3ccc(-c4ccccc4)cc3)CC[C@@H]21	-0.043% (inactive)
C[C@@H]1CN([C@@H](C)CO)C(=O)c2cccc(NS(=O)(=O)c3cn(C)cn3)c2O[C@H]1CN(C)Cc1ccncc1	-0.172% (inactive)
COc1ccc(NS(=O)(=O)c2cccc(Cl)c2Cl)cc1S(=O)(=O)N1CCCCC1	-0.061% (inactive)
C[C@@H]1CN([C@@H](C)CO)C(=O)c2cc(NC(=O)Nc3ccc4c(c3)OCO4)ccc2O[C@H]1CN(C)C	-0.091% (inactive)
C[C@@H]1CN([C@@H](C)CO)C(=O)c2cc(N(C)C)ccc2O[C@@H]1CN(C)C(=O)Nc1cccc2ccccc12	-0.224% (inactive)
Cc1ccc(C(=O)Nc2cc(C)nn2CCC#N)cc1	0.178% (inactive)
COc1ccc(CN(C)C[C@H]2Oc3ccc(NC(=O)Cn4cnnn4)cc3CC(=O)N([C@@H](C)CO)C[C@@H]2C)cc1	-0.061% (inactive)
COc1ccc(NC(=O)N(C)C[C@@H]2Oc3ccc(NC(=O)c4ccncc4)cc3CC(=O)N([C@@H](C)CO)C[C@H]2C)cc1	-0.088% (inactive)
Cc1cccc(NC(=O)CCCN2C(=O)C(c3ccccc3)Oc3cccnc32)c1C (stereo not given)	0.811% (inactive)
COc1cc(OC)cc(N(C(=O)c2snc(C(N)=O)c2N)C(C(=O)NCC2CCCO2)c2ccc(C)o2)c1 (stereo not given)	-0.112% (inactive)
C[C@H]1CN([C@@H](C)CO)C(=O)c2cc(NC(=O)CCN3CCOCC3)ccc2O[C@@H]1CN(C)Cc1ccncc1	0.277% (inactive)
CN(Cc1cccc2ncccc12)C(=O)CC1C(=O)NCCN1Cc1ccc(F)cc1 (stereo not given)	-0.111% (inactive)
C[C@H](CO)N1C[C@H](C)[C@@H](CN(C)S(=O)(=O)c2cn(C)cn2)Oc2ccc(NC(=O)Nc3ccc(F)cc3)cc2CC1=O	0.1% (inactive)
Cc1ccccc1CN1CCN(S(=O)(=O)c2ccc(Cl)s2)CC1	0.152% (inactive)
CCNS(=O)(=O)c1ccc(CCC(=O)N2CCN(c3ccc(OC)cc3)CC2)cc1	-0.027% (inactive)
C[C@@H]1CN([C@@H](C)CO)C(=O)Cc2cc(NC(=O)C3CC3)ccc2O[C@@H]1CN(C)C(=O)Nc1ccccc1	0.276% (inactive)
C[C@H](CO)N1C[C@H](C)[C@@H](CN(C)Cc2ccc(Oc3ccccc3)cc2)Oc2ccc(NC(=O)Nc3ccc(C(F)(F)F)cc3)cc2C1=O	0.27% (inactive)
C[C@@H]1CN([C@H](C)CO)C(=O)c2cc(NC(=O)CCN3CCOCC3)ccc2O[C@@H]1CN(C)Cc1ccc(C(F)(F)F)cc1	-0.028% (inactive)

Same assay, conditions: HUVEC E-selectin immunostaining, at 21 µM (top of the series), percent of TNF-alpha response over vehicle

SMILES	activation
C[C@H]1CN([C@@H](C)CO)C(=O)c2cc(NC(=O)Nc3ccccc3)ccc2O[C@@H]1CN(C)C(=O)Nc1ccc(C(F)(F)F)cc1	0.08% (inactive)
C[C@H](CO)N1C[C@H](C)[C@@H](CN(C)S(=O)(=O)c2ccc(F)cc2)Oc2ccc(NS(C)(=O)=O)cc2CC1=O	0.279% (inactive)
C[C@H](CO)N1C[C@H](C)[C@@H](CN(C)C(=O)NC2CCCCC2)Oc2ccc(NC(=O)Nc3ccc(C(F)(F)F)cc3)cc2C1=O	-0.177% (inactive)
CC(C)NC(=O)N(C)C[C@@H]1Oc2ccc(NC(=O)Cn3cnnn3)cc2C(=O)N([C@H](C)CO)C[C@H]1C	-0.15% (inactive)
CC(C)NC(=O)N(C)C[C@H]1Oc2c(NC(=O)CCCCCC(=O)Nc3ccccc3N)cccc2C(=O)N([C@@H](C)CO)C[C@H]1C	-0.093% (inactive)
C[C@@H]1CN([C@H](C)CO)C(=O)c2cc(NC(=O)CCCCCC(=O)Nc3ccccc3N)ccc2O[C@H]1CN(C)C(=O)Nc1ccc2c(c1)OCO2	-0.113% (inactive)
C[C@H](CO)N1C[C@H](C)[C@H](CN(C)S(=O)(=O)c2ccc(Cl)cc2)Oc2ccc(NC(=O)Nc3ccc(F)cc3)cc2CC1=O	0.805% (inactive)
C[C@H]1CN([C@@H](C)CO)C(=O)c2cc(NC(=O)Cn3cnnn3)ccc2O[C@H]1CN(C)Cc1ccc(Oc2ccccc2)cc1	0.004% (inactive)
CC(C)NC(=O)N(C)C[C@@H]1Oc2c(NC(=O)c3ccc(-c4nccs4)cc3)cccc2C(=O)N([C@@H](C)CO)C[C@@H]1C	-0.199% (inactive)
